Residues, ends and D or L forms follow the SMILES beside them. *: point of attachment. Cbz = O=C(OCc1ccccc1)*; CH2F = FC*
How the values were obtained:
[1] = system: CLL cells; experiment: MTT cytotoxicity assay, CLL cells; assay type: cell-based; conditions: Homo sapiens, CLL cell, 72 hours, duplicate
Method: The compounds of the invention were screened for CLL apoptotic activity by flow cytometry and a MTT-based assay. […] Primary PBL cells were acquired from the San Diego Blood Bank, San Diego, Calif. DiOC6 and PI dyes were obtained from Molecular Probes, Eugene, Oreg. Otherwise, unless indicated, all other reagents were purchased from Sigma (St. Louis, Mo.), and all test compounds were dissolved in sterile DMSO.
To get a more concise measure of the EC50 and confirm the flow cytometry results, a MTT (3-(4,5-dimethylthiazol-2-yl)-2,5-diphenyl tertrazolium bromide) assay using a procedure similar to that described by Mosmann, T., J Immunol Methods. 1983, 65, 55-63, was performed on all analogs. This method provided a larger number of datapoints so that a value for the EC50 could be extrapolated.
This assay was based on a procedure described by Mosmann. Briefly, in each well of a 96-well plate, 5×10^5 CLL cells were suspended in 100 μL of […] medium containing 10% FBS, 100 μg/mL penicillin, and 100 μg/mL streptomycin. Serial dilution of test compounds were then performed in duplicate across the plate to establish a concentration gradient from 0 to 1000 μM. After 72 hours of incubation at 37° C., the cells were incubated for 6 more hours in the presence of 20 μL of 5 mg/mL MTT (3-(4,5-dimethylthiazol-2-yl)-2,5-diphenyl tertrazolium bromide) before dissolving the resulting crystals in 50 μL lysis buffer (15% SDS, 15 mM HCl) overnight. Afterwards, the absorbance of each well was measured at […] in a Finstrument Microplate Reader, and the data was analyzed by Graphpad Prism Software, version 2.0b.

[2] = system: Mcl-1; experiment: Mcl-1 level in LNCaP cells, SDS-PAGE immunoblot; assay type: cell-based; conditions: co-incubation with 5.0 μM MG-132 or pre-incubation with Z-VAD, LNCaP
[3] = system: Bag-1; experiment: Bag-1 level in LNCaP cells, SDS-PAGE immunoblot; assay type: cell-based; conditions: co-incubation with 5.0 μM MG-132 or pre-incubation with Z-VAD
[4] = system: prostate cancer; conditions: TRAMP mouse; cited from earlier work
[5] = in vitro; conditions: human, primary normal peripheral blood lymphocyte (PBL) cells
[6] = system: B-cell CLL cells; conditions: cited from earlier work
[7] = system: CLL cells; experiment: Viability of CLL cells, erythrocin B exclusion assay; conditions: fludarabine 10 nM or etodolac 10 μM alone, 48 hours; FIG. 3

Structure (SMILES) | EC50 [1] | CC50 at 48 h [5] | further results
CCc1cccc2c3c([nH]c12)C(CC)(CC)OCC3 [Compound 5, 1,1,8-Triethyl-1,3,4,9-tetrahydropyrano[3,4-b]indole] | > 1000 µM |  | melting point: 133 to 134 °C
CC(NC(=O)C(NC(=O)OCc1ccccc1)C(C)C)C(=O)NC(CC(=O)O)C(=O)CF (stereo not drawn) [Z-VAD] (Cbz-Val-Ala-Asp-CH2F; configuration not given here) |  |  | effect on the etodolac-induced fall in Mcl-1 levels [2]: did not prevent; effect on the etodolac-induced fall in Bag-1 levels [3]: did not prevent
C[C@@H](C(=O)O)c1ccc(-c2ccccc2)c(F)c1 [R-flurbiprofen] |  |  | progression of prostate cancer [4]: inhibited progression of prostate cancer
CCc1cccc2c3c([nH]c12)C(CC)(CCOC(C)=O)OCC3 (stereo not shown) [Compound 10, Acetic acid-2-(1,8-diethyl-1,3,4,9-tetrahydropyrano[3,4-b]indol-1-yl)-ethyl ester] | 686 µM | 100 to 250 µM | 
CCc1cccc2c3c([nH]c12)C(CC)(CCCl)OCC3 (stereo not shown) [Compound 4, 1-(2-Chloroethyl)-1,8-diethyl-1,3,4,9-tetrahydropyrano[3,4-b]indole] | 572 µM | < 100 µM | 
CCc1cccc2c3c([nH]c12)C(CC)(CC(O)O)OCC3 (stereo not shown) [Compound 11, 2-(1,8-Diethyl-1,3,4,9-tetrahydropyrano[3,4-b]indol-1-yl)-ethane-1,1-diol] | 416 µM |  | melting point: 158 to 159 °C
CC(=O)Oc1ccccc1C(=O)O [aspirin] |  |  | viability of B-cell CLL cells in vitro [6]: reduced the viability
Nc1nc(F)nc2c1ncn2[C@@H]1O[C@H](CO)[C@@H](O)[C@@H]1O [fludarabine] |  |  | cytotoxic effect on CLL cells, either drug alone [7]: ineffective
CCc1cccc2c3c([nH]c12)C(CC)(CCOC)OCC3 (stereo not shown) [Compound 2, 1,8-Diethyl-1-(2-methoxyethyl)-1,3,4,9-tetrahydropyrano[3,4-b]indole] | > 1000 µM | > 750 µM | 
CCc1cccc2c3c([nH]c12)C(CC)(CC(C)=O)OCC3 (stereo not shown) [Compound 13, 1-(1,8-Diethyl-1,3,4,9-tetrahydropyrano[3,4-b]indol-1-yl)-propan-2-one] | > 1000 µM | > 750 µM | 
CC(C)C[C@@H](C=O)NC(=O)[C@H](CC(C)C)NC(=O)[C@H](CC(C)C)NC(=O)OCc1ccccc1 [MG-132] (Cbz-Leu-Leu-Leu-aldehyde) |  |  | effect on the etodolac-induced fall in Mcl-1 levels [2]: prevented; effect on the etodolac-induced fall in Bag-1 levels [3]: prevented
